Values joined by “and” are separate entries in the source; they are usually repeats but may differ in a detail not shown here. Equal values may be shown once. Toxic doses and inconclusive results are not listed. Rule as the data show it: active = T/C of 150% or more; inactive = T/C below 125%.
System: L1210 leukemia ip in BDF1 mice, survival T/C
Assay: NCI In Vivo Anticancer Drug Screen. Data for tumor model L1210 Leukemia (intraperitoneal) in B6D2F1 (BDF1) mice
Conditions: endpoint: mean survival time, higher = longer survival
Outline: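 Antitumor effect is assessed in tumor-bearing animals. Survival in the compound arm is compared with a vehicle-dosed control arm and expressed as their quotient.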

[1] = dose: 100.0 mg/kg/injection, schedule: Q04DX003 (ip), vehicle: saline with Tween-80
[2] = dose: 200.0 mg/kg/injection, schedule: Q04DX003 (ip), vehicle: saline with Tween-80
[3] = dose: 400.0 mg/kg/injection, schedule: Q04DX003 (ip), vehicle: saline with Tween-80

Measured: T/C

O=C(CCCN1CCC2(CC1)OC(=O)N(c1ccc(F)cc1)C2=O)c1cccs1
inactive: dose: 50.0 mg/kg/injection, schedule: Q01DX001 (ip), vehicle: Klucel (hydroxypropylcellulose) (HPC) 94 % of control | dose: 100.0 mg/kg/injection, schedule: Q01DX001 (ip), vehicle: Klucel (hydroxypropylcellulose) (HPC) 91 % of control | dose: 200.0 mg/kg/injection, schedule: Q01DX001 (ip), vehicle: Klucel (hydroxypropylcellulose) (HPC) 88 % of control

CCCCCCC(C)NCC(C)O (centres undefined)
inactive: dose: 75.0 mg/kg/injection, schedule: Q01DX001 (ip), vehicle: acid diluted with saline 96 % of control

CSc1ncnc2c1ncn2N1CCCC1
inactive: dose: 75.0 mg/kg/injection, schedule: Q01DX001 (ip), vehicle: other 101 % of control | dose: 150.0 mg/kg/injection, schedule: Q01DX001 (ip), vehicle: other 97 % of control | dose: 300.0 mg/kg/injection, schedule: Q01DX001 (ip), vehicle: other 98 % of control

C1CCC2C(C1)CCC1C3CCCC3OCN21 (centres undefined)
inactive: dose: 100.0 mg/kg/injection, schedule: Q04DX002 (ip), vehicle: saline with Tween-80 96 % of control | dose: 200.0 mg/kg/injection, schedule: Q04DX002 (ip), vehicle: saline with Tween-80 96 % of control | dose: 400.0 mg/kg/injection, schedule: Q04DX002 (ip), vehicle: saline with Tween-80 93 % of control

O=C1NOCC1NCc1c(O)ccc2ccccc12 (centres undefined)
inactive: [1] 87 % of control | [2] 100 % of control | [3] 97 % of control

C1=CC2C3CCC(C3)C2C1 (centres undefined)
inactive: dose: 50.0 mg/kg/injection, schedule: Q01DX009 (ip), vehicle: saline with Tween-80 96 % of control | dose: 100.0 mg/kg/injection, schedule: Q01DX009 (ip), vehicle: saline with Tween-80 102 % of control and 88 % of control | [1] 98 % of control and 101 % of control | dose: 200.0 mg/kg/injection, schedule: Q01DX009 (ip), vehicle: saline with Tween-80 94 % of control and 108 % of control | [2] 93 % of control and 101 % of control | dose: 400.0 mg/kg/injection, schedule: Q01DX009 (ip), vehicle: saline with Tween-80 95 % of control | [3] 93 % of control and 96 % of control

CCSc1ncnc2nc(C)[nH]c12
inactive: dose: 100.0 mg/kg/injection, schedule: Q01DX001 (ip), vehicle: saline 100 % of control | dose: 200.0 mg/kg/injection, schedule: Q01DX001 (ip), vehicle: saline 101 % of control

N#CCCC(=O)c1ccccn1
inactive: dose: 200.0 mg/kg/injection, schedule: Q01DX009 (ip), vehicle: Klucel (hydroxypropylcellulose) (HPC) 100 % of control | dose: 400.0 mg/kg/injection, schedule: Q01DX009 (ip), vehicle: Klucel (hydroxypropylcellulose) (HPC) 93 % of control

From PubChem BioAssay AID248 (DTP/NCI, 2004)
